Experimental data from patent US20130280260A1, “OSTEOCLASTOGENESIS INHIBITOR CONTAINING ANTI-VDAC ANTIBODY” (TOKYO WOMEN'S MEDICAL UNIVERSITY, priority 2010, published 2013).

Assays:
[1] = system: monoclonal antibody 20B12 (anti-VDAC1); test: Epitope analysis by ELISA using synthetic peptides covering VDAC1; format: binding, mouse; conditions: for OD450-595: 20B12 at 5 μg/mL, average of two wells; for reaction between peptide and antibody (ELISA): text summary of Tables 2, 3
Protocol: In order to examine an epitope for the anti-VDCA monoclonal antibody (VDAC1(20B12), SANTA CRUZ Biotechnology, Inc., sc-58649, mouse monoclonal IgG2b, 100 μg/ml), an analysis was conducted by ELISA using synthetic peptides (Table 1). As the synthetic peptides, 28 types of peptides were prepared so as to cover the VDAC1 completely.
The synthetic peptides were fixed to plates by an avidin-biotin method as follows.
The synthetic peptides (325 nmol/peptide) were each dissolved in 250 μL of DMSO, and then diluted 6400-fold with Wash Buffer (PBS containing 0.05% Tween-20). After a streptavidin-coated plate was washed with Wash Buffer (350 μL, 3 times), 100 μL of the peptide thus diluted was added into the plate, which was left standing in cold storage overnight.
ELISA was performed using the plate to which the peptide was fixed in 7.1, and antibodies bound to the peptide were detected. The detection procedure was as follows. Two wells were used for one condition, and the average was taken. • (1) The liquid in wells was taken out. After washing with Wash Buffer (350 μL, three times), 200 μL of Blocking Buffer (SynBlock) was added to the wells, which were shaken at 37° C. for 1 hour. • (2) The liquid in the wells was taken out, and 50 μL of the monoclonal antibody 20B12 (diluted to 5 μg/mL with Blocking Buffer) was added to the wells, which were shaken at 37° C. for 1 hour. • (3) The liquid in the wells was taken out. After washing with Wash Buffer, 50 μL of HRP-labeled Goat anti Mouse IgG (Fc) (the original solution had been diluted 25000-fold with Wash Buffer) was added to the wells, which were shaken at 37° C. for 1 hour. • (4) The liquid in the wells was taken out, and the plate was washed. Then, 60 μL of a staining solution was added to the plate, which was incubated at 37° C. for 30 minutes. After 60 μL of a stop solution was added thereto to stop the color reaction, the absorbance at 450 nm (Reference 595 nm) was measured with a plate reader.

human osteoclasts = test: Inhibition of osteoclast differentiation and osteoclastogenesis in human osteoclastogenesis culture system (monocytes with M-CSF and RANKL); format: cell-based; conditions: 0.2 μg/mL or 2 μg/mL, in comparison with the control
Protocol: • (1) Preparation of Monoclonal Antibodies against Cell Membrane Proteins of Osteoclasts • (i) Peripheral blood monocytes from five healthy subjects were cultured in flasks in the presence of M-CSF and RANKL for approximately 2 weeks and differentiated into osteoclasts. After trypsin and EDTA were added to the human osteoclasts, the resulting cells were cultured at 37° C. for 15 minutes, and then detached with a cell scraper and harvested. This operation was repeated to collect cell membranes of human mature osteoclasts. Membrane proteins were prepared from the human mature osteoclasts using a RIPA buffer. • (ii) Using the obtained membrane proteins as an antigen, mice were immunized. Spleen cells of the mice thus immunized were fused with myeloma cells, and four types of hybridomas were obtained. Screening was performed by ELISA using a plate on which the osteoclast membrane proteins were immobilized. The wells of the positive result were further examined for a reactivity to human osteoclasts and a nonspecific reactivity to monocytes. After cloning, 5D1/2B9/2H10 and 5D1/3F3/2C8 were obtained as final lines. • (iii) From these final lines, monoclonal antibodies were obtained. • (2) Purification of Proteins Bound to Antibody Column
• (1) Into the human osteoclastogenesis culture system obtained in step 1. […]

Compound	OD450-595 ([1]; first time)	OD450-595 ([1]; second time)	reaction between peptide and antibody (ELISA) [1]	osteoclastogenesis (total area of osteoclasts) (human osteoclasts)
ALVLGYEGWL AGYQMNFETA (ALVLGYEGWLAGYQMNFETA) [Peptide 15, synthetic peptide covering part of VDAC1]	0.337	0.373		
FTEKWNTDNT LGTEITVEDQ (FTEKWNTDNTLGTEITVEDQ) [Peptide 8, synthetic peptide covering part of VDAC1]	0.341	0.411		
KLETAVNLAW TAGNSNTRFG (KLETAVNLAWTAGNSNTRFG) [Peptide 21, synthetic peptide covering part of VDAC1]	0.235	0.270		
HTNVNDGTEF GGSIYQKVNK (HTNVNDGTEFGGSIYQKVNK) [Peptide 19, synthetic peptide covering part of VDAC1]	0.300	0.312		
SSFSPNTGKK NAKIKTGYKR (SSFSPNTGKKNAKIKTGYKR) [Peptide 11, synthetic peptide covering part of VDAC1]	0.319	0.361		
IAAKYQIDPD ACFSAKVNNS (IAAKYQIDPDACFSAKVNNS) [Peptide 23, synthetic peptide covering part of VDAC1]	0.276	0.357		
MAVPPTYADL GKSARDVFTK (MAVPPTYADLGKSARDVFTK) [Peptide 1, synthetic peptide covering part of VDAC1]	0.448	0.443		
ACFSAKVNNS SLIGLGYTQT (ACFSAKVNNSSLIGLGYTQT) [Peptide 24, synthetic peptide covering part of VDAC1]	1.284	1.336	significant	
ALLDGKNVNA GGHKLGLGLE (ALLDGKNVNAGGHKLGLGLE) [Peptide 27, synthetic peptide covering part of VDAC1]	0.290	0.371		
VGYKTDEFQL HTNVNDGTEF (VGYKTDEFQLHTNVNDGTEF) [Peptide 18, synthetic peptide covering part of VDAC1]	0.275	0.305		
GYGFGLIKLD LKTKSENGLE (GYGFGLIKLDLKTKSENGLE) [Peptide 3, synthetic peptide covering part of VDAC1]	0.280	0.354		
TTKVTGSLET KYRWTEYGLT (TTKVTGSLETKYRWTEYGLT) [Peptide 6, synthetic peptide covering part of VDAC1]	0.358	0.363		
LGTEITVEDQ LARGLKLTFD (LGTEITVEDQLARGLKLTFD) [Peptide 9, synthetic peptide covering part of VDAC1]	0.286	0.338		
LKTKSENGLE FTSSGSANTE (LKTKSENGLEFTSSGSANTE) [Peptide 4, synthetic peptide covering part of VDAC1]	0.312	0.423		
NAKIKTGYKR EHINLGCDMD (NAKIKTGYKREHINLGCDMD) [Peptide 12, synthetic peptide covering part of VDAC1]	0.345	0.375		
AGYQMNFETA KSRVTQSNFA (AGYQMNFETAKSRVTQSNFA) [Peptide 16, synthetic peptide covering part of VDAC1]	0.388	0.444		
EHINLGCDMD FDIAGPSIRG (EHINLGCDMDFDIAGPSIRG) [Peptide 13, synthetic peptide covering part of VDAC1]	0.369	0.322		
GKSARDVFTK GYGFGLIKLD (GKSARDVFTKGYGFGLIKLD) [Peptide 2, synthetic peptide covering part of VDAC1]	0.363	0.421		
GGHKLGLGLE FQA (GGHKLGLGLEFQA) [Peptide 28, synthetic peptide covering part of VDAC1]	0.418	0.455		
FTSSGSANTE TTKVTGSLET (FTSSGSANTETTKVTGSLET) [Peptide 5, synthetic peptide covering part of VDAC1]	0.311	0.351		
NCCCC(O)(P(=O)(O)O)P(=O)(O)O [alendronate sodium hydrate]				significantly inhibited
FDIAGPSIRG ALVLGYEGWL (FDIAGPSIRGALVLGYEGWL) [Peptide 14, synthetic peptide covering part of VDAC1]	0.316	0.385		
LKPGIKLTLS ALLDGKNVNA (LKPGIKLTLSALLDGKNVNA) [Peptide 26, synthetic peptide covering part of VDAC1]	0.268	0.367		
SLIGLGYTQT LKPGIKLTLS (SLIGLGYTQTLKPGIKLTLS) [Peptide 25, synthetic peptide covering part of VDAC1]	0.590	0.679	weak reaction	
TAGNSNTRFG IAAKYQIDPD (TAGNSNTRFGIAAKYQIDPD) [Peptide 22, synthetic peptide covering part of VDAC1]	0.318	0.319		
LARGLKLTFD SSFSPNTGKK (LARGLKLTFDSSFSPNTGKK) [Peptide 10, synthetic peptide covering part of VDAC1]	0.360	0.351		
KYRWTEYGLT FTEKWNTDNT (KYRWTEYGLTFTEKWNTDNT) [Peptide 7, synthetic peptide covering part of VDAC1]	0.321	0.371		
KSRVTQSNFA VGYKTDEFQL (KSRVTQSNFAVGYKTDEFQL) [Peptide 17, synthetic peptide covering part of VDAC1]	0.285	0.308		
GGSIYQKVNK KLETAVNLAW (GGSIYQKVNKKLETAVNLAW) [Peptide 20, synthetic peptide covering part of VDAC1]	0.362	0.398		
